This note sets out measurements from patent publication US10010624B2, “Pyrrolobenzodiazepine-antibody conjugates” (MEDIMMUNE LIMITED, priority 2013, dated 2018).

The experiment deals with K562 human chronic myeloid leukaemia cells. As to the kind of experiment: K562 assay (MTT cytotoxicity of released compounds). The experiment is classed as cell-based. The settings on record: drug incubation 1 hour or 96 hours (not specified which), MTT readout, dose reducing optical density to 50% of control. The protocol:
K562 human chronic myeloid leukaemia cells were maintained in RPM1 1640 medium supplemented with 10% fetal calf serum and 2 mM glutamine at 37° C. in a humidified atmosphere containing 5% CO2 and were incubated with a specified dose of drug for 1 hour or 96 hours at 37° C. in the dark. The incubation was terminated by centrifugation (5 min, 300 g) and the cells were washed once with drug-free medium. Following the appropriate drug treatment, the cells were transferred to 96-well microtiter plates (10^4 cells per well, 8 wells per sample). Plates were then kept in the dark at 37° C. in a humidified atmosphere containing 5% CO2. The assay is based on the ability of viable cells to reduce a yellow soluble tetrazolium salt, 3-(4,5-dimethylthiazol-2-yl)-2,5-diphenyl-2H-tetrazolium bromide (MTT, Aldrich-Sigma), to an insoluble purple formazan precipitate. Following incubation of the plates for 4 days (to allow control cells to increase in number by approximately 10 fold), 20 μL of MTT solution (5 mg/mL in phosphate-buffered saline) was added to each well and the plates further incubated for 5 h. The plates were then centrifuged for 5 min at 300 g and the bulk of the medium pipetted from the cell pellet leaving 10-20 μL per well. […] The optical density was then read at a wavelength of 550 nm on a Titertek Multiscan ELISA plate reader, and a dose-response curve was constructed. […]

`COc1cc2c(cc1OCCCCCOc1cc3c(cc1OC)C(=O)N1C=C(C)C[C@H]1C=N3)N=C[C@@H]1CC(C)=CN1C2=O` [Compound RelC]: the IC50 is 0.425 nM.

As a reminder, the IC50 is the midpoint of a concentration-inhibition curve.
